Results reported in ChEMBL document CHEMBL1201862, “PubChem BioAssay data set” (2004).
Activity calls are given as the source filed them.

Assays:
HEK293 [1] = experiment: inhibition of NOD1-driven NF-kB reporter – cell-based, luminescence, uHTS, primary screen (AID 1578); assay type: functional; details: Homo sapiens
HEK293 [2] = experiment: cells; assay type: functional, cell-based; details: Homo sapiens
HEK293 [3] = experiment: cells; assay type: functional, cell-based; details: Homo sapiens; remark: listed apart in the source
[4] = molecular target: Nucleotide-binding oligomerization domain-containing protein 2 (Homo sapiens, UniProt Q9HC29); experiment: inhibition of NOD2-driven NF-kB reporter – cell-based, luminescence, uHTS, HEK293 (AID 1566); assay type: functional
Chain of Nucleotide-binding oligomerization domain-containing protein 2 (Q9HC29 whole entry, the tested form may be a part): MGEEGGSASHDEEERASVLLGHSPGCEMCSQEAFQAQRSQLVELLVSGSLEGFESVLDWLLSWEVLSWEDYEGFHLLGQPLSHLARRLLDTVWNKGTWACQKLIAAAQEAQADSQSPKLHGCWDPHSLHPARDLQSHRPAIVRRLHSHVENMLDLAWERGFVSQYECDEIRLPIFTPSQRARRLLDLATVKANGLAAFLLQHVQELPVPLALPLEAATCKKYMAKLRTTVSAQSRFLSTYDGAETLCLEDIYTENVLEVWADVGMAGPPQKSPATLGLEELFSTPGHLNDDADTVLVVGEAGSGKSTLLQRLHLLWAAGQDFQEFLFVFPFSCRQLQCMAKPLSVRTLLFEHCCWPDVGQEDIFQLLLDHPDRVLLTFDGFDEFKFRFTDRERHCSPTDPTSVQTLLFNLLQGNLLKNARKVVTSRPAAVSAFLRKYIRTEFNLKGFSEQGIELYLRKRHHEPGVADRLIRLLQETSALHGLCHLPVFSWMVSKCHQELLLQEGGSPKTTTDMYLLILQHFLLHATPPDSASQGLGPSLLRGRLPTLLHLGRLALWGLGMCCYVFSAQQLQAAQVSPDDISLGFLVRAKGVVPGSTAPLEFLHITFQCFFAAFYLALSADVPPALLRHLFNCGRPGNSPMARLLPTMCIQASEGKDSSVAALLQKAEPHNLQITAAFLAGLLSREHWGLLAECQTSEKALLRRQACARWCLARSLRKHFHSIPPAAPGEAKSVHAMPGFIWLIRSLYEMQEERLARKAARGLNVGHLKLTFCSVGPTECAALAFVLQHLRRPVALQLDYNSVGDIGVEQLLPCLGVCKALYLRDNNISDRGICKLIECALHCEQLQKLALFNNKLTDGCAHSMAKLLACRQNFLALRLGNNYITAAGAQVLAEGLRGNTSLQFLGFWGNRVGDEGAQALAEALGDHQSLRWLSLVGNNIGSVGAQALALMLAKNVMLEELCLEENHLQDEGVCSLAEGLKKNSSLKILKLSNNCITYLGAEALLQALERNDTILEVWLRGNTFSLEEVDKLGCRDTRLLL

HEK293 [5] = experiment: NOD2 signaling inhibitors in MDP-stimulated cells, cell-based, uHTS, luminescence (AID 2001); assay type: functional; details: Homo sapiens
HEK293 [6] = experiment: cells; assay type: functional, cell-based; details: Homo sapiens; remark: listed apart in the source
NADPH oxidase 1 = molecular target: T1, NADPH oxidase 1 (Homo sapiens, UniProt Q9Y5S8); assay type: functional, cell-based;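 further: Cell-based assay with luminescence read-out, IC50 derived from inhibitor dose-response curves; intracellular ROS from endogenous NOX1 in intact HT29 colon cancer cells; potency of inhibitors that lower the ROS luminescence signal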
T1 sequence (Q9Y5S8 whole entry): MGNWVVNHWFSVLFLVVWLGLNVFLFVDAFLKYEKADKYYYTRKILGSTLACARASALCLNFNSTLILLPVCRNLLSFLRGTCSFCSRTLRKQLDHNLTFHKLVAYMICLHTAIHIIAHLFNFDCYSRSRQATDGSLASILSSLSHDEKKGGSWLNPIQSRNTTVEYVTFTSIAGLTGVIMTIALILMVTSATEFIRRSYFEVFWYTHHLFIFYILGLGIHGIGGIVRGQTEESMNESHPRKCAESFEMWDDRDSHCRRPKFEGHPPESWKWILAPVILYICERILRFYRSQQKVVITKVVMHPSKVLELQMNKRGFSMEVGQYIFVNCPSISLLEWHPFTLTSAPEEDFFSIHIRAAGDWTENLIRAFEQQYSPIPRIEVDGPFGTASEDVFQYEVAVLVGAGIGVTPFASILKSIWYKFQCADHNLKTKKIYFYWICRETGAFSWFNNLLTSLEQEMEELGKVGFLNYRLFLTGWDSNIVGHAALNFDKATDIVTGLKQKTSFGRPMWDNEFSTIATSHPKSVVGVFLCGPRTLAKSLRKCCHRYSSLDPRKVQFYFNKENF

Cytochrome P450 2C9 = Cytochrome P450 2C9 (Homo sapiens, UniProt P11712)
Chain of Cytochrome P450 2C9 (P11712 whole entry): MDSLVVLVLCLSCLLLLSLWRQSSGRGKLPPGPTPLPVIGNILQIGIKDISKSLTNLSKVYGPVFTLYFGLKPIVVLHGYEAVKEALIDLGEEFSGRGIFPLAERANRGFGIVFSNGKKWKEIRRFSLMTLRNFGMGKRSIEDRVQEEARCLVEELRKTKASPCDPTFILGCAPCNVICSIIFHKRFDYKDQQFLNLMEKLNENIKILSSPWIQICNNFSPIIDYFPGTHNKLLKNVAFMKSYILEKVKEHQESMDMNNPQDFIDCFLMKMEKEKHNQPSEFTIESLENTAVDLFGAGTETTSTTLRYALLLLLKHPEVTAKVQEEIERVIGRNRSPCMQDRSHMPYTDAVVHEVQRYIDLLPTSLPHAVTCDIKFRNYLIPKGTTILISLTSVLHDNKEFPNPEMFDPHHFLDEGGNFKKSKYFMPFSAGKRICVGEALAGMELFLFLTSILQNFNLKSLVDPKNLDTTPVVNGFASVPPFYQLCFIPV

Cytochrome P450 3A4 = Cytochrome P450 3A4 (Homo sapiens, UniProt P08684); details: Potency;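 further: confirmatory qHTS run detecting inhibitors and substrates of CYP3A4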
Chain of Cytochrome P450 3A4 (P08684 whole entry): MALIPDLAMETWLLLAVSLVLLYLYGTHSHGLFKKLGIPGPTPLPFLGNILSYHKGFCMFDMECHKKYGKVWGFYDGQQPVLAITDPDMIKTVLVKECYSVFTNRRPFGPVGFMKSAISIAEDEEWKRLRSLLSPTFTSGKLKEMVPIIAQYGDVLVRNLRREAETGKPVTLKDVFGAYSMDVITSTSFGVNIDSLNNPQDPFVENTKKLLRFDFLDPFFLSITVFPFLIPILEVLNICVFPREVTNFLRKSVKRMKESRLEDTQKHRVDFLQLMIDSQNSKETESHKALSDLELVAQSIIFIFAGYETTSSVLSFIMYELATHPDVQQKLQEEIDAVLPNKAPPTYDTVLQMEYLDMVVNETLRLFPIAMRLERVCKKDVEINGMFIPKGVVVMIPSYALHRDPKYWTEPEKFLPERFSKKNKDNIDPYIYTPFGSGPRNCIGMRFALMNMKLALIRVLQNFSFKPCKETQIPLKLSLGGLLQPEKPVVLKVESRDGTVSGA

[7] = molecular target: T2, Short transient receptor potential channel 4 (Mus musculus, UniProt Q9QUQ5); experiment: block of DAMGO-driven TRPC4 calcium entry – cell-based, HEK293 TRPC4/mu-opioid, Fluo-4 calcium, dose response (AID 434942); assay type: functional;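 further: potency of inhibitors blocking the TRPC4 calcium response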
T2 sequence (Q9QUQ5 whole entry): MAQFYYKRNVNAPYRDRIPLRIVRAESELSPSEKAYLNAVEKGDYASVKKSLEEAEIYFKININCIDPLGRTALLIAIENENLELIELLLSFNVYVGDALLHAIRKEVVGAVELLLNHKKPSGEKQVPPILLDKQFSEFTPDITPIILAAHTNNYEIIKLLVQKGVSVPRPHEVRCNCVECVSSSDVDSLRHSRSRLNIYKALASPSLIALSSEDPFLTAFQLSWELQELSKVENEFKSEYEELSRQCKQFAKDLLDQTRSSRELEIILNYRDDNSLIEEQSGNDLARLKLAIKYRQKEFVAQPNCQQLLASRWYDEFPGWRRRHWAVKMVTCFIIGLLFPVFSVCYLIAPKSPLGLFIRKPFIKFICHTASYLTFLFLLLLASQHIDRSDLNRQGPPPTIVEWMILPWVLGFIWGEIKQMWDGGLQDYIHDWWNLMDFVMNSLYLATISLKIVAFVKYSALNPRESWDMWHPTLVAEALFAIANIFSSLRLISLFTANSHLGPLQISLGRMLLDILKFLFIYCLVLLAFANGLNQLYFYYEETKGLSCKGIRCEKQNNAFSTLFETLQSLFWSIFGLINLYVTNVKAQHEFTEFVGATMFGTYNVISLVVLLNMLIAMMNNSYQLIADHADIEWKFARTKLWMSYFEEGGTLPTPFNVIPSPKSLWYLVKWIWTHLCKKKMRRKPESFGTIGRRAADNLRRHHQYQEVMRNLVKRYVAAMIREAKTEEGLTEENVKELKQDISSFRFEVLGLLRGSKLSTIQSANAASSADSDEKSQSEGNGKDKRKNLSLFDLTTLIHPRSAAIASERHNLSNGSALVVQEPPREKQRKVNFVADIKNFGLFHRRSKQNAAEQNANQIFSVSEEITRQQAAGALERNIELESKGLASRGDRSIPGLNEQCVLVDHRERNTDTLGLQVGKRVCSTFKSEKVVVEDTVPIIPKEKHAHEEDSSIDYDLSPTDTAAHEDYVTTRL

[8] = molecular target: T2, Short transient receptor potential channel 4; experiment: calcium entry via TRPC4 opening agents – cell-based, HEK293 TRPC4/mu-opioid, Fluo-4 calcium, dose response (AID 434937); assay type: functional
[9] = Luminescence Cell-Based Dose Retest to Confirm Inhibitors of Cancer Stem Cells. [Related pubchem assays (depositor defined):AID2717, AID2721]; assay type: functional; details: Homo sapiens
[10] = molecular target: T3, Rac GTPase-activating protein 1 (Homo sapiens, UniProt Q9H0H5); experiment: blockers of MgcRacGAP-driven Rac1 GTP hydrolysis – biochemical, ADP Hunter fluorescence, primary and confirmatory, confirmation (AID 624330); assay type: functional
T3 sequence (Q9H0H5 whole entry): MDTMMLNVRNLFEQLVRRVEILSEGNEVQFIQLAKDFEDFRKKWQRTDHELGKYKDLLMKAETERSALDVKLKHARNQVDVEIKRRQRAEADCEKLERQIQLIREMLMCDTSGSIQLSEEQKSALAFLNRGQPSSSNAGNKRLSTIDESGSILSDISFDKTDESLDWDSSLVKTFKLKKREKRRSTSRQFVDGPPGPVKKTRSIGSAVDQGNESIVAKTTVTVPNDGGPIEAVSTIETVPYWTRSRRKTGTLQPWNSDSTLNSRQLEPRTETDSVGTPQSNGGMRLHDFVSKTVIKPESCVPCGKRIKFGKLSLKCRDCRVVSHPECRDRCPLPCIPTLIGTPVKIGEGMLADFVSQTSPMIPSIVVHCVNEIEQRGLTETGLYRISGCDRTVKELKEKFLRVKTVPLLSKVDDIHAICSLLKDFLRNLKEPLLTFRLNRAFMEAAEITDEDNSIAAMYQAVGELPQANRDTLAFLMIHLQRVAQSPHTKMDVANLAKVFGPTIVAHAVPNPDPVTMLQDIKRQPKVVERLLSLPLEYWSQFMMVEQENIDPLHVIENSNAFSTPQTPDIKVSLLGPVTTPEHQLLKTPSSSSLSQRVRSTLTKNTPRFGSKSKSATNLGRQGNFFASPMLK

Cytochrome P450 2C19 = Cytochrome P450 2C19 (Homo sapiens, UniProt P33261); experiment: Cytochrome panel assay with activity outcomes. Panel member name: p450-cyp2c19 Compounds with AC50 equal or less than 10 uM are considered active; assay type: functional; details: read-out: AC50
Chain of Cytochrome P450 2C19 (P33261 whole entry): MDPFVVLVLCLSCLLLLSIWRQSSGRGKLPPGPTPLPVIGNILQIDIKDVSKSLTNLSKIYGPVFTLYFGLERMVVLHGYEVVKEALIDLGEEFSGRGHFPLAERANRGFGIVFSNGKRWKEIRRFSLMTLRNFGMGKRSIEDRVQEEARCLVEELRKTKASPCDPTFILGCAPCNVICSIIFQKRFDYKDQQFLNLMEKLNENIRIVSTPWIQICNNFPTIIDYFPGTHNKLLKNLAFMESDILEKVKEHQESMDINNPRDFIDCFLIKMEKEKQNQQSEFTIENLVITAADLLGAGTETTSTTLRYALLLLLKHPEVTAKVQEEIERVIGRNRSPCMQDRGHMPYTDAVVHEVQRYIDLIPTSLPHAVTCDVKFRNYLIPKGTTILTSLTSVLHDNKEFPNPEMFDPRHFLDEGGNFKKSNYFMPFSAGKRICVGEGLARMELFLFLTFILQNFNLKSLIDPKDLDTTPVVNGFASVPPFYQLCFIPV

[11] = molecular target: T4, High affinity choline transporter 1 (Homo sapiens, UniProt Q9GZV3); experiment: human choline transporter blockers, potency – cell-based, 5-point CRC, membrane potential dye, dose response (AID 504840); assay type: functional
T4 sequence (Q9GZV3 whole entry): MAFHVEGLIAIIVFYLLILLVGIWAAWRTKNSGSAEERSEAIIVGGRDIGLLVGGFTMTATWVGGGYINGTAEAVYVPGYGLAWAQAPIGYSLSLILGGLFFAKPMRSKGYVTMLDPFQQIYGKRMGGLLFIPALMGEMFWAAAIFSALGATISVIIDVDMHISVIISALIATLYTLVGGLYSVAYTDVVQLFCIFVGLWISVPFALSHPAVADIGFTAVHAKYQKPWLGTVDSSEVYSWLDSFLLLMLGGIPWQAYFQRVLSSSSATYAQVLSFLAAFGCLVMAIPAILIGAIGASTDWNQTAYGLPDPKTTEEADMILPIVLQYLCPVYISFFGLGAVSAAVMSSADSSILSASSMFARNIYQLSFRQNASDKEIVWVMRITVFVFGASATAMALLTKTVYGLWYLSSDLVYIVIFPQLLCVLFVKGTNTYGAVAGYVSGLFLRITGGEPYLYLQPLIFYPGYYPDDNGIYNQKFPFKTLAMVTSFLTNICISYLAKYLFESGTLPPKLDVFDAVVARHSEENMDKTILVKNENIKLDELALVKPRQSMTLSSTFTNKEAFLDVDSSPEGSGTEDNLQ

Vero = experiment: cells; assay type: functional; details: Chlorocebus sabaeus

## CCc1ccc(OCC(=O)Nc2ccc(-c3cc4ccccc4oc3=O)c(OC)c2)cc1
HEK293 [1]
  EC50: 2.18 µM (active)
HEK293 [2]
  IC50: 2.79 µM (active)
HEK293 [3]
  IC50: 11.3 µM (active)
[4]
  EC50: 5.25 µM (active)
HEK293 [5]
  IC50: 2.94 µM (active)
HEK293 [6]
  IC50: > 20 µM (inactive)

## O=C(Oc1ccc([N+](=O)[O-])cc1)c1sc2ccccc2c1Cl
NADPH oxidase 1
  IC50: > 17 µM (not active)

## Cc1ccc(OP(=O)(Oc2ccc(C)cc2)N2C=Cc3ccccc3[C@H]2C#N)cc1
Cytochrome P450 2C9
  AC50: inconclusive

## Nc1ccc2ccccc2c1 [NAPHTHYLAMINE]
Cytochrome P450 3A4
  AC50: 12.6 µM (inconclusive)

## CN(C)C(CNC(=O)Cc1cccc(C(F)(F)F)c1)c1ccccc1 (configuration not stated)
[7]
  EC50: 0.0093 µM (active)
[8]
  EC50: 0.0947 µM (active)

## COc1cc(/C=C/C(=O)c2ccc3c(c2)OCO3)cc(Cl)c1O
[9]
  AC50: 6.39 µM (active)
[8]
  EC50: 5.96 µM (active)
[10]
  IC50: 93.6 µM (active)

## Cc1cc(C)cc(NC(S)=NC2CC3CCC(C2)N3Cc2ccco2)c1 (configuration not stated)
Cytochrome P450 2C19
  AC50: 35.5 µM (inconclusive)
Cytochrome P450 2C9
  AC50: inconclusive

## CCN(CC)c1ccc(NC(=O)Nc2ccc(OCc3ccccc3)cc2)cc1
NADPH oxidase 1
  IC50: 0.235 µM (active)

## Fc1ccc(NC(=S)NNC(=S)Nc2ccccc2)cc1
NADPH oxidase 1
  IC50: 0.218 µM (active)

## CSc1ccc(NC(=O)Nc2ccc(N(C)C)cc2)cc1
NADPH oxidase 1
  IC50: 0.0777 µM (active)

## CNC(=O)[C@@]1(C)C=C[C@@H](Cc2ccccc2)N1C(=O)OC
Cytochrome P450 3A4
  AC50: 3.16 µM (inconclusive)

## N#Cc1cccc(-c2nc3cnc(N4CCOCC4)nc3n(Cc3ccc(F)cc3)c2=O)c1
Cytochrome P450 2C9
  AC50: inconclusive

## CCOC(=O)C1(O)Oc2cc(OC)cc(OC)c2C(=O)C1c1ccccc1 (configuration not stated) [2-ETHOXYCARBONYL-2-HYDROXY-5,7-DIMETHOXYISOFLAVANONE]
Cytochrome P450 3A4
  AC50: 20 µM (inconclusive)

## Cc1cc(OCc2cc(C(=O)NCCN3CCCCC3CO)no2)cc(C)c1Cl (configuration not stated)
[7]
  EC50: 2.99 µM (active)
[11]
  IC50: 18.2 µM (active)
Vero
  CC50: > 25 µM (active)

## COc1ccc(F)cc1C(=O)C1CCCN(Cc2ccc3c(c2)OCCO3)C1 (configuration not stated)
[7]
  EC50: 1.33 µM (active)

## CCC(=O)CC(NC(=O)OC)c1ccccc1 (configuration not stated)
Cytochrome P450 3A4
  AC50: 6.31 µM (inconclusive)
